Results published in US7105635B2, “Cyclic beta-sheet peptides useful as apoptotic/cytotoxic cancer agents” (The University of Toledo, priority 2002, dated 2006).
“Also recorded” adds a separate entry of the source. Like-named read-outs stand apart in the source and are kept apart here. Positions of bridges follow the written chain, without caps; N, C: chain ends. Residues, ends and D or L forms follow the SMILES beside them. No end group written: not given here. *: point of attachment. Biotin = O=C1N[C@H]2[C@H](CS[C@H]2CCCCC(=O)*)N1

Experiments:
CEM cells [1] = assay: cell permeability to ethidium bromide / propidium iodide, CEM cells; assay type: cell-based, human; details: for cell permeability to ethidium bromide or propidium iodide: CEM cells
Method: FIG. 11 is a graph showing changes in cell permeability to ethidium bromide following incubation with L1AD3 or with native CTX. CEM cells (10^6/ml) were incubated in quartz cuvets in a Shimidzu fluorescence spectrophotometer with 1 μg/ml ethidium bromide. Either CTX at a final concentration of 1.6 μM or L1AD3 at a final concentration of 40 μM was added, and readings were taken at 5-minute intervals, with excitation at 526 nm and emission measured at 608 nm.
(§1) Flow cytometry using fluorescent Annexin-V distinguishes cells with externalized phosphatidyl serine. As long as the cell's plasma membrane remains intact, fluorescent dyes such as ethidium bromide or propidium iodide are excluded. A 40 μM concentration of L1AD3 caused approximately 93% of CEM cells to become Annexin-V-positive within 2.5 hours, which is unusually short for signs of apoptosis to occur. Camptothecin, a cancer chemotherapeutic agent administered in control experiments at 20 μM, caused only 33% of the cells to appear apoptotic.
Since whole CTX can rapidly permeabilize leukemic T-lymphocytes, separate experiments using a fluorescence spectrophotometer were applied to examine changes in plasma membrane permeability to ethidium bromide following exposure of CEM cells either to L1AD3 or to CTX.

CEM cells [2] = assay: Annexin-V-FITC flow cytometry of phosphatidyl serine exposure (apoptosis), CEM cells; assay type: cell-based, human; details: 20 μM, control experiments
Method: FIGS. 10a–d are graphs showing comparisons of phosphatidyl serine exposure on the outer surface of CEM cells following a 2.5-hour incubation with or without 40 μM cyclized L1AD3. After incubation, cells were washed twice with cold PBS prior to adding FITC-conjugated Annexin-V. Flow cytometry using a B-D FACSCalibur was performed, and 10,000 cells were analyzed using the B-D CellQuest program. Individual cells are represented in the dot plots on the left (FIGS. 10a and 10c), and histograms of the same data are on the right (FIGS. 10b and d). Whereas untreated tumor cells show less than 6% spontaneous apoptosis (FIG. 10c, lower left quadrant), 93% of cells treated with L1AD3 undergo apoptosis after 2.5 hours (FIG. 10d, lower right quadrant).
as §1, with “apoptotic. […]” for “apoptotic.”

[3] = test system: human leukemic T-lymphocytes; details: previous comparisons of native toxins (Stevens-Truss & Hinman, 1997); cited from earlier work
[4] = test system: embryonic chicken heart cells; assay: beating of heart cells; assay type: cell-based; details: for time to cessation of beating of heart cells: 1 μM
Method: (§2) The L1AD3 peptide composition, Seq. […] It is believed that there is an absence of the L1AD3 protein receptor on the surface of normal human white blood cells, whereas the L1AD3 protein receptor target is found in the surface of leukemic T-cells.
(§3) The L1AD3 peptide stops tumor cell division in both Jurkat and CEM cells with an EC50 of approximately 5 μM, as shown in FIG. 8. This is indicated by the inhibition of thymidine incorporation into DNA. […] In contrast to CTX, which rapidly depolarized skeletal muscle (Dufton and Hider, 1991), and which at 1 μM concentrations causes cessation of beating of embryonic chicken heart cells within 5–10 seconds, the L1AD3 peptide at 40 μM concentrations has no effect upon the beating of heart cells over 2 hours of observation. Therefore, it is believed that the L1AD3 peptide, along with the other seven peptides, is not harmful to the heart, in contrast to native CTX.

Jurkat cells = assay: thymidine incorporation into DNA of Jurkat cells; assay type: cell-based, human; details: read-out: EC50, inhibition of thymidine incorporation into DNA
Method: as §3

[5] = test system: normal human peripheral white blood cells (PBL's); assay: Annexin-V binding / phosphatidyl serine externalization, normal human white blood cells; assay type: cell-based
CEM cells [6] = assay: [3H]-thymidine incorporation into DNA of CEM cells; assay type: cell-based, human; details: for EC50: CEM cells, FIG. 8, read-out: EC50, inhibition of thymidine incorporation into DNA
Method: FIG. 8 is a graph showing percent inhibition of thymidine incorporation as a function of peptide concentration. Each well of a microtiter plate received 200,000 CEM cells in log phase of growth, suspended in 50 μl complete medium. The same volume of diluted peptide, either linear or cyclized, was added to achieve the final concentrations shown. After a 1 -hour incubation at 37 degrees C., 1 μCi of [^3H]-thymidine in 25 μl medium was added, and the plates were incubated another 3 hours prior to harvesting. Control cells were incubated without either peptide, but with the same volume of medium.
The peptide called L1AD3, Seq. ID No. 1, prevents the proliferation of cancerous human T-lymphocytes (CEM cell line) by inhibiting incorporation of thymidine into DNA.
as §3

normal human cells = assay: permeabilization of normal human cells (propidium iodide, ethidium bromide, trypan blue); assay type: cell-based; details: ethidium bromide or trypan blue
Text: as §2

CEM cells [7] = test system: CEM cells
Method: To investigate peptide binding to cell surfaces, the peptide was modified by N-terminal biotinylation. […] A biotin-avidin sorbant assay, similar to an ELISA procedure was performed to measure binding. In this assay, horseradish peroxidase-conjugated avidin was employed rather than an enzyme-linked second antibody. Mouse anti-human MHC-1 (anti HLA-A,-B,-C) antibody was used to hold CEM or normal human cells to the surface of 96-well microtiter plates.
(§4) In order to investigate the nature of the binding site for L1AD3 on tumor cells, trypsin was added to the cells and subsequently quenched by adding enzyme inhibitor prior to measurements of binding, using biotinylated peptide in either the solid-phase or the fluorescent assay described above.

CEM cells [8] = assay: biotin-avidin sorbant binding assay, adherent CEM cells; design: species or system human; details: for binding after pretreatment of cells with trypsin: solid-phase assay
Method: CEM cells were held on the surface of 96-well plates previously coated with anti-human MHC-1 antibody (anti-HLA-A,B,C). After plates containing adherent cells were blocked with bovine albumin and washed with PBS, biotinylated L1AD3, either alone (upper trace) or in a 1:1 ratio with non-biotinylated L1AD3 (lower trace), was added to triplicate wells to achieve the indicated final concentrations. After a 1-hour incubation at 37 degrees, plates were washed three times with PBS, and avidin-HRP was added. Enzyme substrate (ABTS) was added, and color development at 415 nm was monitored using an ELISA plate reader with printed output.
The lower two traces in the figure were developed as described above for FIG. 12, except that the target cells were human PBL's that had been isolated about 4 hours before the assay. […] In this case, 0.0125% trypsin was incubated with adherent cells for 10 min, followed by three washes and subsequent addition of soybean trypsin inhibitor.
(§5) A biotin-avidin sorbant assay, similar to an ELISA procedure was performed to measure binding. In this assay, horseradish peroxidase-conjugated avidin was employed rather than an enzyme-linked second antibody. Mouse anti-human MHC-1 (anti HLA-A,-B,-C) antibody was used to hold CEM or normal human cells to the surface of 96-well microtiter plates.
as §4

CEM cells [9] = test system: CEM cells; remark: listed apart in the source
[10] = test system: normal human peripheral blood lymphocytes; assay: biotin-avidin sorbant binding assay, normal human PBL's; details: with or without non-biotinylated L1AD3
Method: FIG. 13 is a graph showing inhibition of specific binding of biotinylated L1AD3 to normal human peripheral blood lymphocytes by non-biotinylated L1AD3, and abolition of binding by pretreatment of CEM cells with trypsin. The lower two traces in the figure were developed as described above for FIG. 12, except that the target cells were human PBL's that had been isolated about 4 hours before the assay. […] In this case, 0.0125% trypsin was incubated with adherent cells for 10 min, followed by three washes and subsequent addition of soybean trypsin inhibitor.
as §5

CEM cells [11] = assay: luciferin/luciferase bioluminescence assay of total ATP in CEM cells; assay type: cell-based, human
Method: FIG. 9 is a graph showing the amounts of total ATP present in cell lysates following incubation of CEM cells with peptide analogs. Cyclized peptides were added at double their final concentration, which was 20 μM, to triplicate wells of a black 96-well reaction plate. CEM cells (50,000 per well) were added in the same volume, and the plate was incubated 30 minutes at 37 degrees. Lysis buffer (Sigma) was added, followed by luciferin/luciferase assay buffer (Molecular Probes). The plate was sealed with a clear plastic film and read using a Packard Top-Count reader. Cells with medium only had ATP levels of 1073±160 in arbitrary luminescence units. Peptide analogs are identified by single amino acid modifications.
Changes in cellular energy levels can contribute to the process of cytotoxicity. ATP was measured using a 96-well luciferin/luciferase bioluminescence assay system and found a 60% reduction in ATP after 30 minutes' incubation of CEM cells with 20 μM L1AD3, as shown in FIG. 9. While somewhat large, this reduction of ATP is consistent with apoptosis, inasmuch as necrosis tends to occur when ATP levels drop to below 30% of control.

Molecule: CC[C@@]1(O)C(=O)OCc2c1cc1n(c2=O)Cc2cc3ccccc3nc2-1 [Camptothecin]
- cell permeability to ethidium bromide or propidium iodide (CEM cells [1]): neither L1AD3 nor camptothecin caused increases in cell permeability
- cells apoptotic (Annexin-V) (CEM cells [2]): 33%
- cells apoptotic (Annexin-V) (CEM cells [2]; listed as camptothecin): 23%

Molecule: LKCNKLVPLFYKTCPAGKNLCYKMFMVATPKVPVKRGCIDVCPKSSLL VKYVCCNTDRCN (LKCNKLVPLFYKTCPAGKNLCYKMFMVATPKVPVKRGCIDVCPKSSLLVKYVCCNTDRCN; Naja naja atra) [CTX, parent 60-amino acid cytotoxin purified from the Taiwan cobra, Naja naja atra]
- toxicity toward human leukemic T-lymphocytes [3]: highly toxic
- time to cessation of beating of heart cells [4]: 5 to 10 s
- time to cessation of beating of heart cells ([4]; listed as “parent” cardiotoxin): 10 to 30 s
- time until cells began to admit ethidium bromide (CEM cells [1]; 1.6 μM, fluorescence spectrophotometer): ≤ 15 min
- time to induced permeability to propidium iodide (CEM cells [1]; 10 μM, fluorescence microscopy): ≤ 30 s
- cell permeability to ethidium bromide or propidium iodide (CEM cells [1]): rapidly became permeable

Molecule: CC(C)C[C@@H]1NC(=O)[C@H](CCCCN)NC(=O)[C@H](CC(N)=O)NC(=O)[C@@H](NC(=O)[C@H](CCCCN)NC(=O)[C@@H](N)CC(C)C)CSSC[C@@H](C(=O)O)NC(=O)[C@H]([C@@H](C)O)NC(=O)[C@H](CCCCN)NC(=O)[C@H](Cc2ccc(O)cc2)NC(=O)[C@H](Cc2ccccc2)NC(=O)[C@H](CC(C)C)NC(=O)[C@@H]2CCCN2C(=O)[C@H](C(C)C)NC1=O [L1AD3, Leu-Lys-Cys-Asn-Lys-Leu-Val-Pro-Leu-Phe-Tyr-Lys-Thr-Cys] (H-LKCNKLVPLFYKTC-OH; disulfide 3-14)
- EC50 (Jurkat cells): ~5 µM
- externalization of phosphatidyl serine / Annexin-V binding in normal human white blood cells ([5]; 40 μM peptide (same concentration as CEM test)): did not induce externalization of phosphatidyl serine; also recorded: not affected above background levels
- Annexin-V labelling of T-cells, B-cells and macrophages among PBL's ([5]; 1-hour incubation, double-labeled with anti CD-3, CD-19, CD-14): all were within background levels
- EC50 (CEM cells [6]): ~5 µM
- effect upon the beating of heart cells ([4]; 40 μM, 2 hours): no effect
- permeabilizing effect on normal human cells (normal human cells): no permeabilizing effect

Molecule: Biotin-LKCNKLVPLFYKTC (cysteine pairing not given here) [biotinylated L1AD3]
- fluorescence increase over cells not incubated with biotinylated peptide (CEM cells [7]; avidin-FITC, CEM cells in suspension): 48%
- binding after pretreatment of cells with trypsin (CEM cells [7]; fluorescent assay): abolished binding
- binding to human cancer cells (CEM cells [8]): bound human cancer cells; also recorded: preserves its ability to bind cancer cells
- Kd (CEM cells [8]; saturable binding, read-out: apparent KD of binding to CEM cells): ~6 µM
- binding after pretreatment of cells with trypsin (CEM cells [8]): abolished
- binding after pretreatment of cells with trypsin (CEM cells [8]; listed as biotinylated peptide): abolished binding
- other activities after biotinylation (CEM cells [9]): significantly diminished
- binding to normal human white blood cells / PBL's [10]: did not bind appreciably
- ability to reduce ATP levels in cancer cells (CEM cells [11]): retains its ability to reduce ATP levels

Molecule: CC(C)C[C@H](NC(=O)[C@H](CCCCN)NC(=O)[C@H](CC(N)=O)NC(=O)[C@H](CS)NC(=O)[C@H](CCCCN)NC(=O)[C@@H](N)CC(C)C)C(=O)N[C@H](C(=O)N1CCC[C@H]1C(=O)N[C@@H](CC(C)C)C(=O)N[C@@H](Cc1ccccc1)C(=O)N[C@@H](Cc1ccc(O)cc1)C(=O)N[C@@H](CCCCN)C(=O)N[C@H](C(=O)N[C@@H](CS)C(=O)O)[C@@H](C)O)C(C)C [Linear L1AD3] (H-LKCNKLVPLFYKTC-OH; N-terminus and C-terminus assumed)
- EC50 of linear peptide relative to cyclized counterpart (CEM cells [6]): more than eight times
- EC50 (CEM cells [6]): ~43 µM
